The values below come from patent US20210284638A1 (Saint Louis University, priority 2018, published 2021).

In general, IC50 refers to the midpoint of a concentration-inhibition curve.

Structures are written as SMILES. Where a name gives a salt, the structure may show the parent alone.

Experiment [1] has as its target T1, Recombinant human integrin αVβ3 (Homo sapiens, UniProt P05106+P06756).
T1 construct: purchased R&D Systems 3050-AV
As to the kind of experiment: Solid Phase Receptor Assay for αVβ3 function. Format: binding. The conditions noted are these: plate-bound human vitronectin; read-out: αVβ3 SPRA IC50. The procedure:
C. […] Wells were washed 3 times with 150 μL TBS+ and then 150 μL of blocking buffer (TBS+ with 1% bovine serum albumin, Sigma A7906) was added. The plate was incubated for 1 hr at 37° C. and then washed 3× with TBS+ buffer. […] Compounds were diluted to 20 μM and then 1 μL was added to each well of the plate according to a standard template with each sample repeated in triplicate. After incubation for two hours at room temperature, the plate was washed 3× with 150 μL of TBS+ buffer. To each well, 50 μL of biotinylated anti-αV antibody (R&D Systems, BAF1219) at 0.5 μg/mL in TBS+/0.1% BSA were added and the plate covered and incubated for 1 hr at room temperature. After washing the plate 3× with 150 μL of TBS+ buffer, 50 μL of streptavidin-conjugated horseradish peroxidase (R&D Systems, DY998) diluted in TBS+ blocking buffer were added to the wells and the plate incubated for 20 min at room temperature. The plate was washed 3× with TBS+ buffer followed by 50 μL of TMB substrate (Sigma, T4444) added to each well in the dark and the plate was incubated for 25 min at room temperature. 25 μL of 1.0 M phosphoric acid was added as a stop solution and the plates were read at 450 nm using a Spectramax plate reader.

Experiment [2] deals with T2, Recombinant human integrin α5β1 (Homo sapiens, UniProt P05556+P08648).
T2 construct: purchased R&D Systems 3230-A5
Kind of experiment: Solid Phase Receptor Assay (SPRA) for α5β1 function. The experiment is classed as binding. The conditions noted are these: plate-bound human fibronectin. The procedure: A. Solid Phase Receptor Assay (SPRA) for α5β1 Function
Wells were washed 3 times with 150 μL TBS+ and then 150 μL of blocking buffer (TBS+ with 1% bovine serum albumin, Sigma A7906) was added. The plate was incubated for 1 hr at 37° C. and then washed 3× with TBS+ buffer. […] Compounds were diluted to 20 μM and then 1 μL was added to each well of the plate according to a standard template with each sample repeated in triplicate. After incubation for two hours at room temperature, the plate was washed 3× with 150 μL of TBS+ buffer. To each well, 50 μL of biotinylated anti-α5 antibody (R&D Systems, BAF1864) at 0.5 μg/mL in TBS+/0.1% BSA were added and the plate covered and incubated for 1 hr at room temperature. After washing the plate 3× with 150 μL of TBS+ buffer, 50 μL of streptavidin-conjugated horseradish peroxidase (R&D Systems, DY998) diluted in TBS+ blocking buffer were added to the wells and the plate incubated for 20 min at room temperature. The plate was washed 3× with TBS+ buffer followed by 50 μL of room temperature TMB substrate (Sigma, T4444) added to each well in the dark and the plate incubated for 25 min at room temperature. 25 μL of 1.0 M phosphoric acid was added as a stop solution and the plates were read at 450 nm using a Spectramax plate reader.

T1 sequence (P06756 31-992 limits assumed): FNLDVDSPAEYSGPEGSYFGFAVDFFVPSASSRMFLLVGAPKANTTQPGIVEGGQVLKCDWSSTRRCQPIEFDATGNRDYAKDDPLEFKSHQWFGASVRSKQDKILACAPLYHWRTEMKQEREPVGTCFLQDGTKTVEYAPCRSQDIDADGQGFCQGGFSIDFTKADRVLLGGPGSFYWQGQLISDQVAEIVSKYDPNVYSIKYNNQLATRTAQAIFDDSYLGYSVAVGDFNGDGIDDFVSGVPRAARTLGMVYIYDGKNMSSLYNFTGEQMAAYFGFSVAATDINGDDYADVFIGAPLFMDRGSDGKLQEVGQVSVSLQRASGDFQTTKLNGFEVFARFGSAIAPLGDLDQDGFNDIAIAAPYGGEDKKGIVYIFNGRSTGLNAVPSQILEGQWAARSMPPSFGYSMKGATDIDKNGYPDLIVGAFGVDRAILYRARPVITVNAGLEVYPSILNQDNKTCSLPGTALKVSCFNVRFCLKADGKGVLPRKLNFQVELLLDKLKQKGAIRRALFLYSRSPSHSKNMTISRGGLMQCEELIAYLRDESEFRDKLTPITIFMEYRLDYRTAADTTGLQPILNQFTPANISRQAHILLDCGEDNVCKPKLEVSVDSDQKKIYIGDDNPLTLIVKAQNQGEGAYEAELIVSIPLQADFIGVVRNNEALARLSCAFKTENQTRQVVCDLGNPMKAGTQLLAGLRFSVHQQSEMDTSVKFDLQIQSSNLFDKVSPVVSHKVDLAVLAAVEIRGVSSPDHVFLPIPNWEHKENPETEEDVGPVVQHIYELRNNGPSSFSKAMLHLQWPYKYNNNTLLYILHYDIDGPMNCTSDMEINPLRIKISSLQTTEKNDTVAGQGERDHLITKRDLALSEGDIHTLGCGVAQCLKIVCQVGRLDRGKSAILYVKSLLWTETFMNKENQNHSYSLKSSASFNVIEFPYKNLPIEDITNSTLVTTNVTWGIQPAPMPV
T1 sequence (P05106 27-718 limits assumed): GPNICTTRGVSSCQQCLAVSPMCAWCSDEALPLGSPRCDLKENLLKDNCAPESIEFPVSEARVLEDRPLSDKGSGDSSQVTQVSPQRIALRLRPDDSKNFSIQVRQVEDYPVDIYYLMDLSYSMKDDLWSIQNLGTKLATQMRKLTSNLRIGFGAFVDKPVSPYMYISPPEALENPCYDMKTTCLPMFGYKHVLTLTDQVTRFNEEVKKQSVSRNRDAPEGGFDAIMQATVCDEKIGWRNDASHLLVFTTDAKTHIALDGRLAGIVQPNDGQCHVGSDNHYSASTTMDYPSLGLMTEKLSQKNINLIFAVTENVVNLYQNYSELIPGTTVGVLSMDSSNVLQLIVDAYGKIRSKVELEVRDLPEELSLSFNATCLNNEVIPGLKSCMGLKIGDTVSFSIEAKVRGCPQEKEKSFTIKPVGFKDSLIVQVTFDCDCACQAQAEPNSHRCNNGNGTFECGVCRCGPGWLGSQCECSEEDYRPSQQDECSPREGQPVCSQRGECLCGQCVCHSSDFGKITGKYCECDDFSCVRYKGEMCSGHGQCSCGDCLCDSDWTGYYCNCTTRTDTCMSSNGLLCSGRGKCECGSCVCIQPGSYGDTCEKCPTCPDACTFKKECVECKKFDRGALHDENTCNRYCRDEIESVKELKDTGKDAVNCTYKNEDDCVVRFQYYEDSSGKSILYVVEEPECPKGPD
T2 sequence (P08648 42-995 limits assumed): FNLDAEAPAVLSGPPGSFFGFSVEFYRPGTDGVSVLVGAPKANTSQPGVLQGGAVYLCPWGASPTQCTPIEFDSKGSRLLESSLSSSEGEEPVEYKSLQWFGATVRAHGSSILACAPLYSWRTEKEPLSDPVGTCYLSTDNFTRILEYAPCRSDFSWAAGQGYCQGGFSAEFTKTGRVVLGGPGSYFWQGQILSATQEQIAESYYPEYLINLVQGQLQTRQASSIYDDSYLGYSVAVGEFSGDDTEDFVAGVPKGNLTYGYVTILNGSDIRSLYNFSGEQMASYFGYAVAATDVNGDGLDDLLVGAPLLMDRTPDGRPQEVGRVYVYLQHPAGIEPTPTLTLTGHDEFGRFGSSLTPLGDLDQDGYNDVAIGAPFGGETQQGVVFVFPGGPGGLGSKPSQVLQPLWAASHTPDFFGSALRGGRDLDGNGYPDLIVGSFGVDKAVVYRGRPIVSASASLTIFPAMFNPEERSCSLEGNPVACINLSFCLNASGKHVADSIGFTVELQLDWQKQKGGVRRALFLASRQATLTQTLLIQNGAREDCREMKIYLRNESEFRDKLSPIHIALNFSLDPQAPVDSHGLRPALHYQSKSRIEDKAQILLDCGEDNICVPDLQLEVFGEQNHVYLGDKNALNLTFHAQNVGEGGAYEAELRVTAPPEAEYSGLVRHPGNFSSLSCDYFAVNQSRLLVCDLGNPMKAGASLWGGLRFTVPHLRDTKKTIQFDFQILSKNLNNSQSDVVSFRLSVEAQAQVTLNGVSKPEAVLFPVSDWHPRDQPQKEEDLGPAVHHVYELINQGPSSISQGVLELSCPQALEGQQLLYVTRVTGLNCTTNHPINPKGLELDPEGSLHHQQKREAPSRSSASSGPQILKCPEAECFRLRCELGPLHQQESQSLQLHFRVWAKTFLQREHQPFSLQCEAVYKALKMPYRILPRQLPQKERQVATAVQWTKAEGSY
T2 sequence (P05556 21-728 limits assumed): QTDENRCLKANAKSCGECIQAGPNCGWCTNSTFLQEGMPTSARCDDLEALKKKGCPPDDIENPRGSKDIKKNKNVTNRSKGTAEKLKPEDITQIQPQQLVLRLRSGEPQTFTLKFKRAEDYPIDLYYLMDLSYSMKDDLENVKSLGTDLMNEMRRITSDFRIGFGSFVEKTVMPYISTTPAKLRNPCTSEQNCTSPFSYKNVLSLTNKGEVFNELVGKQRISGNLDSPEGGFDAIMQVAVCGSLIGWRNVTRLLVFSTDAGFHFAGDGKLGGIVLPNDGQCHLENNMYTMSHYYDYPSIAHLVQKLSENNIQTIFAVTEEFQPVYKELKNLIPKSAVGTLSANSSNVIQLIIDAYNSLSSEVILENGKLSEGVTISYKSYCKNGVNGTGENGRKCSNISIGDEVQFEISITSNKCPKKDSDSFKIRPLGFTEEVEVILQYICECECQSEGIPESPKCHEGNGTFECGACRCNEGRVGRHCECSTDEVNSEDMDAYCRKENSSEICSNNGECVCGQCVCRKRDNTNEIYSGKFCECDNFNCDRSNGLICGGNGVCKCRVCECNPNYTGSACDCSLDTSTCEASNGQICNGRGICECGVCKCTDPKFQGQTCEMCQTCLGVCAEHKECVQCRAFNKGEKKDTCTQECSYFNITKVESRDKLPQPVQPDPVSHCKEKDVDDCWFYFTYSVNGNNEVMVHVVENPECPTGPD

As to `CC(C)c1cc(C#N)cc(C(CC(=O)O)Cc2cc(OCCc3ccc4c(n3)NCCC4)n(C)n2)c1` (stereo not drawn) [Example 2, 3-(3-cyano-5-isopropylphenyl)-4-(1-methyl-5-(2-(5,6,7,8-tetrahydro-1,8-naphthyridin-2-yl)ethoxy)-1H-pyrazol-3-yl)butanoic acid trifluoroacetic acid], the IC50 in experiment [1] was 0.006 µM; in experiment [2], 0.007 µM.

Turning to `COCC1(c2cc(C(CC(=O)O)Cc3csc(CCCc4ccc5c(n4)NCCC5)n3)cc(C(C)(C)C)c2)CCOCC1` (stereo not drawn) [Example 32, 3-[3-tert-butyl-5-[4-(methoxymethyl)tetrahydropyran-4-yl]phenyl]-4-[2-[3-(5,6,7,8-tetrahydro-1,8-naphthyridin-2-yl)propyl]thiazol-4-yl]butanoic acid], the IC50 turned out to be 0.6 µM in experiment [1] and 0.037 µM in experiment [2].

For the compound `Cn1nc(CC(CC(=O)O)c2cc3c(c(C(C)(C)C)c2)OCCO3)cc1OCCc1ccc2c(n1)NCCC2` (stereo not drawn) [Example 16, 3-(8-(tert-butyl)-2,3-dihydrobenzo[b][1,4]dioxin-6-yl)-4-(1-methyl −5-(2-(5,6,7,8-tetrahydro-1,8-naphthyridin-2-yl)ethoxy)-1H-pyrazol-3-yl) butanoic acid], the values for the concentration for half-maximal inhibition (IC50) in experiment [1] and in experiment [2] were 0.007 µM and 0.018 µM, respectively.

Regarding `CC(C)(C)c1cc(C(CC(=O)O)Cc2cc(OCCc3ccc4c(n3)NCCC4)n(CC(F)(F)F)n2)cc(C(C)(C)C)c1` (stereo not drawn) [Example 40, 3-(3,5-di-tert-butylphenyl)-4-(5-(2-(5,6,7,8-tetrahydro-1,8-naphthyridin-2-yl)ethoxy)-1-(2,2,2-trifluoroethyl)-1H-pyrazol-3-yl)butanoic acid trifluoroacetate], the IC50 is 0.74 µM in experiment [1] and 0.006 µM in experiment [2].

Take `CC(C)(C)c1ccc(C#N)c(C(CC(=O)O)Cc2csc(CCCc3ccc4c(n3)NCCC4)n2)c1` (stereo not drawn) [Example 33, 3-(5-tert-butyl-2-cyano-phenyl)-4-[2-[3-(5,6,7,8-tetrahydro-1,8-naphthyridin-2-yl)propyl]thiazol-4-yl]butanoic acid]: the IC50 in experiment [1] was 0.038 µM; in experiment [2] it was 0.0007 µM.

Turning to `COc1ccc(C2COC2)cc1C(CC(=O)O)Cc1cc(OCCc2ccc3c(n2)NCCC3)n(C)n1` (stereo not drawn) [Example 23, 3-[2-methoxy-5-(oxetan-3-yl)phenyl]-4-[1-methyl-5-[2-(5,6,7,8-tetrahydro-1,8-naphthyridin-2-yl)ethoxy]pyrazol-3-yl]butanoic acid], the half-inhibitory concentration (IC50) worked out at 0.026 µM in experiment [1] and 0.036 µM in experiment [2].

`CC(C)(C)c1ccc(Br)c(C(CC(=O)O)Cc2csc(CCCc3ccc4c(n3)NCCC4)n2)c1` (stereo not drawn) [Example 34]: the results for the IC50 in experiment [1] and in experiment [2] were 2.5 µM and 0.069 µM, respectively.

In the case of `COc1c(Br)cc(C(C)(C)C)cc1C(CC(=O)O)Cc1cc(OCCc2ccc3c(n2)NCCC3)n(C)n1` (stereo not drawn) [Example 12, 3-(3-bromo-5-(tert-butyl)-2-methoxyphenyl)-4-(1-methyl-5-(2-(5,6,7,8-tetrahydro-1,8-naphthyridin-2-yl)ethoxy)-1H-pyrazol-3-yl)butanoic acid], the concentration for half-maximal inhibition (IC50) in experiment [1] turned out to be 0.09 µM; in experiment [2] it was 0.18 µM.

With `Cn1nc(CC(CC(=O)O)c2cc(C(C)(C)C)cc(C(C)(C)C(F)(F)F)c2)cc1OCCc1ccc2c(n1)NCCC2` (stereo not drawn) [Example 5, 3-(3-(tert-butyl)-5-(1,1,1-trifluoro-2-methylpropan-2-yl)phenyl)-4-(1-methyl-5-(2-(5,6,7,8-tetrahydro-1,8-naphthyridin-2-yl)ethoxy)-1H-pyrazol-3-yl) butanoic acid], the 50% inhibitory concentration (IC50) in experiment [1] came out at 0.14 µM; in experiment [2], 0.002 µM.

On to `Cn1nc(CC(CC(=O)O)c2cc(C(C)(C)C#N)cc(C(C)(C)C#N)c2)cc1OCCc1ccc2c(n1)NCCC2` (stereo not drawn) [Example 41, 3-(3,5-bis(2-cyanopropan-2-yl)phenyl)-4-(1-methyl-5-(2-(5,6,7,8-tetrahydro-1,8-naphthyridin-2-yl)ethoxy)-1H-pyrazol-3-yl)butanoic acid trifluoroacetate], for which the IC50 in experiment [1] is 0.009 µM; in experiment [2] it was 0.0003 µM.

On to `Cn1nc(CC(CC(=O)O)c2cc(C(C)(C)C)ccc2OC(F)(F)F)cc1OCCc1ccc2c(n1)NCCC2` (stereo not drawn) [Example 20, 3-(5-(tert-butyl)-2-(trifluoromethoxy)phenyl)-4-(1-methyl-5-(2-(5,6,7,8-tetrahydro-1,8-naphthyridin-2-yl)ethoxy)-1H-pyrazol-3-yl)butanoic acid], for which the 50% inhibitory concentration (IC50) in experiment [1] turned out to be 0.88 µM; in experiment [2] it was 0.009 µM.

Take `COc1ccc(C2CCOCC2)cc1C(CC(=O)O)Cc1cc(OCCc2ccc3c(n2)NCCC3)n(C)n1` (stereo not drawn) [Example 46, 3-(2-methoxy-5-(tetrahydro-2H-pyran-4-yl)phenyl)-4-(1-methyl-5-(2-(5,6,7,8-tetrahydro-1,8-naphthyridin-2-yl)ethoxy)-1H-pyrazol-3-yl)butanoic acid]: the IC50 amounted to 0.31 µM in experiment [1] and 0.016 µM in experiment [2].

With `COc1ccc(C2(C(F)F)CC2)cc1C(CC(=O)O)Cc1cc(OCCc2ccc3c(n2)NCCC3)n(C)n1` (stereo not drawn) [Example 21, 3-[5-[1-(difluoromethyl)cyclopropyl]-2-methoxy-phenyl]-4-[1-methyl-5-[2-(5,6,7,8-tetrahydro-1,8-naphthyridin-2-yl)ethoxy]pyrazol-3-yl]butanoic acid], the 50% inhibitory concentration (IC50) in experiment [1] was found to be 0.34 µM; in experiment [2], 0.029 µM.

Consider `COc1c(C(C)(C)C)cc(C(CC(=O)O)Cc2cc(OCCc3ccc4c(n3)NCCC4)n(C)n2)cc1C(C)(C)C` (stereo not drawn) [Example 10, 3-(3,5-di-tert-butyl-4-methoxyphenyl)-4-(1-methyl-5-(2-(5,6,7,8-tetrahydro-1,8-naphthyridin-2-yl)ethoxy)-1H-pyrazol-3-yl)butanoic acid], for which the IC50 in experiment [1] stood at 0.41 µM; in experiment [2], 0.015 µM.

On to `CC(C)(C)c1cc(C(CC(=O)O)Cc2csc(CCCc3ccc4c(n3)NCCC4)n2)cc(C(C)(C)C)c1` (stereo not drawn) [Example 27, 3-(3,5-di-tert-butylphenyl)-4-(2-(3-(5,6,7,8-tetrahydro-1,8-naphthyridin-2-yl)propyl)thiazol-4-yl)butanoic acid], for which the IC50 in experiment [1] is 2.9 µM; in experiment [2], 0.043 µM.

Turning to `COc1ccc(S(F)(F)(F)(F)F)cc1C(CC(=O)O)Cc1cc(OCCc2ccc3c(n2)NCCC3)n(C)n1` (stereo not drawn) [Example 24, 3-[2-methoxy-5-(pentafluoro-sulfanyl)phenyl]-4-[1-methyl-5-[2-(5,6,7,8-tetrahydro-1,8-naphthyridin-2-yl)ethoxy]pyrazol-3-yl]butanoic acid], the figures for the 50% inhibitory concentration (IC50) in experiment [1] and in experiment [2] were 0.13 µM and 0.025 µM, respectively.

Consider `COc1ccc(C2(C(F)F)CC2)cc1C(CC(=O)O)Cc1csc(CCCc2ccc3c(n2)NCCC3)n1` (stereo not drawn) [Example 36, 3-(5-(1-(difluoromethyl)cyclopropyl)-2-methoxyphenyl)-4-(2-(3-(5,6,7,8-tetrahydro-1,8-naphthyridin-2-yl)propyl)thiazol-4-yl)butanoic acid], for which the figures for the IC50 in experiment [1] and in experiment [2] were 0.84 µM and 0.007 µM, respectively.

With `COCC1(c2cc(C(CC(=O)O)Cc3cc(OCCc4ccc5c(n4)NCCC5)n(C)n3)cc(C(C)(C)C)c2)CCOCC1` (stereo not drawn) [Example 1, 3-[3-tert-butyl-5-[4-(methoxymethyl)tetrahydropyran-4-yl]phenyl]-4-[1-methyl-5-[2-(5,6,7,8-tetrahydro-1,8-naphthyridin-2-yl)ethoxy]pyrazol-3-yl]butanoic acid], the values for the concentration for half-maximal inhibition (IC50) in experiment [1] and in experiment [2] were 0.048 µM and 0.002 µM, respectively.

As for `COc1c(C(CC(=O)O)Cc2cc(OCCc3ccc4c(n3)NCCC4)n(C)n2)cc(C(C)(C)C)cc1C(C)(C)C` (stereo not drawn) [Example 11, 3-(3,5-di-tert-butyl-2-methoxyphenyl)-4-(1-methyl-5-(2-(5,6,7,8-tetrahydro-1,8-naphthyridin-2-yl)ethoxy)-1H-pyrazol-3-yl)butanoic acid], the figures for the concentration for half-maximal inhibition (IC50) in experiment [1] and in experiment [2] were 13 µM and 15 µM, respectively.

Turning to `COc1ccc(C2CCOCC2)cc1C(CC(=O)O)Cc1csc(CCCc2ccc3c(n2)NCCC3)n1` (stereo not drawn) [Example 43, 3-(2-methoxy-5-(tetrahydro-2H-pyran-4-yl)phenyl)-4-(2-(3-(5,6,7,8-tetrahydro-1,8-naphthyridin-2-yl)propyl)thiazol-4-yl)butanoic acid], the half-maximal inhibitory concentration (IC50) in experiment [1] was found to be 0.52 µM; in experiment [2], 0.065 µM.

Consider `Cn1nc(C[C@@H](CC(=O)O)c2cc3c(c(C(C)(C)C)c2)OCO3)cc1OCCc1ccc2c(n1)NCCC2` [Example 47], for which the results for the half-maximal inhibitory concentration (IC50) in experiment [1] and in experiment [2] were 0.0018 µM and 0.0062 µM, respectively.
